Values of other authors in patent US11497760B2, “Method for solubilizing poorly water-soluble dietary supplements and pharmaceutically active agents” (ATHENION AG, priority 2016, dated 2022).

Assays:
P-glycoprotein = P-glycoprotein (Homo sapiens, UniProt P08183)
human CYP3A4 = human CYP3A4 (Homo sapiens, UniProt P08684)
human CYP3A4, sequence (P08684 whole entry): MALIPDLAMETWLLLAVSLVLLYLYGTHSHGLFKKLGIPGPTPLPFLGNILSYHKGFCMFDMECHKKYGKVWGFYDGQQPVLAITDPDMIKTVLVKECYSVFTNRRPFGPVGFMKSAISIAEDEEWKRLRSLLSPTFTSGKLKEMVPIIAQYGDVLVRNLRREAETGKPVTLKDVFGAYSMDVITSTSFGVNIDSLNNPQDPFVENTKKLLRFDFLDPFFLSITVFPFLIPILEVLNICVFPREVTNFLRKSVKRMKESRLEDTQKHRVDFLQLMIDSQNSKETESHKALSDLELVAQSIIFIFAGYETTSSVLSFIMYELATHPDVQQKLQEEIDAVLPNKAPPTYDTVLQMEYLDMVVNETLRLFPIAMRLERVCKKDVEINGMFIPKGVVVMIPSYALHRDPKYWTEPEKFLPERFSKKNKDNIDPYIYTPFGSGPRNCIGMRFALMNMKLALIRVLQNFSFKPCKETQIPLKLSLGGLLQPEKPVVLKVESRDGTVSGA

P-glycoprotein, sequence (P08183 whole entry): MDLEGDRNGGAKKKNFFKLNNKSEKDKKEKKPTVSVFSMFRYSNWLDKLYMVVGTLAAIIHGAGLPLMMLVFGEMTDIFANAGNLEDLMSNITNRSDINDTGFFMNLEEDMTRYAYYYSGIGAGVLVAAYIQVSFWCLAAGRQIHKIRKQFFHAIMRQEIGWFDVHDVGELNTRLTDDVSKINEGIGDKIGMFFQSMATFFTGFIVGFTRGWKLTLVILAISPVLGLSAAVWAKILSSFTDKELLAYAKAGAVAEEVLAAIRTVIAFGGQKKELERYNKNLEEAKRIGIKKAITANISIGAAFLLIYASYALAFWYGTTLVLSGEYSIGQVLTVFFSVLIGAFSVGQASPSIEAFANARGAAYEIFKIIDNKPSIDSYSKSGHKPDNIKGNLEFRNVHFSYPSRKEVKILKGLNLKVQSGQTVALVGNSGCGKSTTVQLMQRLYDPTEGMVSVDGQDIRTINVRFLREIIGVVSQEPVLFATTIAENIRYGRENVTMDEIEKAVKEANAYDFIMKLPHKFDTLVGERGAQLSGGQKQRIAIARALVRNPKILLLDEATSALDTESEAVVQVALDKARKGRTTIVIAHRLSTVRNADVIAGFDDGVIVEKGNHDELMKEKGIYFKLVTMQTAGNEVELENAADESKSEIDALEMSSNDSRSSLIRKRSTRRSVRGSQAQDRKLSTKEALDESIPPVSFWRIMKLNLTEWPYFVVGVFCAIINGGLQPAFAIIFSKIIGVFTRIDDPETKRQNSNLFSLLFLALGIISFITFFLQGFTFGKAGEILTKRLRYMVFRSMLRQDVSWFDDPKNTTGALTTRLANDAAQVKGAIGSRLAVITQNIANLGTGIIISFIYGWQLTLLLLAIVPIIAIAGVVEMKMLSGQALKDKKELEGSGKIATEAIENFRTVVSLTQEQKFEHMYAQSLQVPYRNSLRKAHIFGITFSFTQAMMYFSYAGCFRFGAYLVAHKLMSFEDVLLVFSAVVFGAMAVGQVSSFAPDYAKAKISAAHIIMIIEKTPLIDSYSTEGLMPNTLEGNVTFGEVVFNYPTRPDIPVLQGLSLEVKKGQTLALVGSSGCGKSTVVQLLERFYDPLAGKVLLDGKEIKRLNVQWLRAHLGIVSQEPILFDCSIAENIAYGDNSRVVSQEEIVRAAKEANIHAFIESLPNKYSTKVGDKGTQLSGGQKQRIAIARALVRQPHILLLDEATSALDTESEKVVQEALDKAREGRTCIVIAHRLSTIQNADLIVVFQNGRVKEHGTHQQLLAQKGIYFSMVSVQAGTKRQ

In the case of `O=C(C=CC=Cc1ccc2c(c1)OCO2)N1CCCCC1` [Piperine, 1-[5-(1,3-benzodioxol-5-yl)-1-oxo-2,4-pentadienyl]piperidine], the “inhibition of P-glycoprotein” value (P-glycoprotein) is listed as “inhibit” and the “inhibition of human CYP3A4” value (human CYP3A4) is listed as “inhibit”.
